Measurements taken from patent US4314989A, “Methionine sulfoxide amflioration of acetaminophen toxicity” (priority 1980, dated 1982).

What was measured:
[1] = tested on: acetaminophen hepatotoxicity; experiment: Effect of BHT and BHA on hepatotoxicity of acetaminophen (general finding); conditions: in vivo
Text: Because the general population consumes large amounts of these chemicals daily, because of their presence in a wide variety of food products, the likelihood of an increased incidence of hepatoxicity in persons taking repeated dosages of acetaminophen is self-evident.

[2] = tested on: hamsters; experiment: Enhancement of acetaminophen toxicity by BHA and protection by methionine sulfoxide in hamsters; format: in vivo, hamster
Experimental: Hamsters weighing about 70 gm. each were divided into five groups of animals. […] All deaths occurred within 48 hours. The survivors all were alive one week later when examined again.
Methionine sulfoxide protects the hamsters against the enhanced acetaminophen toxicity up to dosages of about 200 mg/kg of BHA.

[3] = tested on: hamsters; experiment: Enhancement of acetaminophen toxicity by BHT and protection by methionine sulfoxide in hamsters; format: in vivo, hamster
Experimental: (§1) Hamsters weighing about 70 gm. each were divided into five groups of animals. An aqueous solution (ca. 0.7 ml) of […]. (600 mg/kg) of acetaminophen and an amount of methionine sulfoxide listed in the table below, was administered intraperitoneally to each hamster. All deaths occurred within 48 hours. The survivors all were alive one week later when examined again.
(§2) Following the above procedure, hamsters were given i.p. either 300 mg/kg of acetaminophen or 600 mg/kg BHT.

[4] = as above; format: in vivo, hamster; conditions: hamster, in vivo, ip; i.p. mixture of 300 mg/kg acetaminophen and 600 mg/kg BHT; within 24 hours; read-out: deaths
Experimental: as §1, §2

[5] = tested on: mice; conditions: cited from earlier work
[6] = tested on: mice; conditions: administered up to one hour after acute toxic amounts of acetaminophen; cited from earlier work
[7] = tested on: humans; conditions: in vivo; cited from earlier work
[8] = tested on: inbred mice; conditions: suggested for humans from studies with inbred mice; cited from earlier work
[9] = tested on: hamsters; experiment: animal or person; format: in vivo, hamster; conditions: for % Deaths: deaths within 48 hours; for hamsters protected from the otherwise lethal dosage of acetaminophen: acetaminophen 600 mg/kg i.p.
Experimental: as §1

[10] = tested on: hepatotoxicity after an overdose of acetaminophen; conditions: administered within 16 hours after an overdose of acetaminophen; clinical study; cited from earlier work
[11] = tested on: man and experimental animals; conditions: cited from earlier work
[12] = tested on: acetaminophen hepatotoxicity; conditions: cited from earlier work; for effect on acetaminophen hepatotoxicity: J. Kelleher et al.
[13] = tested on: man; conditions: vitamin C with acetaminophen, cited from earlier work
[14] = tested on: vitamin E deficient rats; conditions: cited from earlier work
[15] = i.p. mixture of 300 mg/kg acetaminophen and 100 mg/kg BHA, all hamsters
[16] = acetaminophen 300 mg/kg i.p. alone

Compound: COc1ccc(O)c(C(C)(C)C)c1 [BHA, butylated hydroxyanisole]
- effect on hepatotoxicity of acetaminophen [1]: profoundly enhance its hepatotoxicity
- deaths ([2]; BHA 100-300 mg/kg i.p. alone): no deaths occurred
- incidence of deaths ([2]; higher amounts of BHA (than 100 mg/kg) with acetaminophen): higher incidence of deaths
- survival ([2]; i.p. mixture of 300 mg/kg acetaminophen and 100 mg/kg BHA): most survive
- coma [2, 15]: go into a coma
- time to coma [2, 15]: 15 to 20 min

Compound: Cc1cc(C(C)(C)C)c(O)c(C(C)(C)C)c1 [BHT, butylated hydroxytoluene]
- deaths ([3]; BHT 600 mg/kg i.p. alone): No deaths occurred
- enhancement of acetaminophen toxicity ([3]; i.p. mixture of 300 mg/kg acetaminophen and 600 mg/kg BHT): profound enchancement of acetaminophen toxicity
- mortality at 24 h [4]: 100%
- effect on hepatotoxicity of acetaminophen [1]: profoundly enhance its hepatotoxicity

Compound: C[S+](C)[O-] [Dimethyl sulfoxide]
- protection against CCl4 hepatotoxicity [5]: inability of DMSO to protect mice
- protection against the hepatotoxic effects of acetaminophen [6]: protect mice against the hepatotoxic effects of acetaminophen

Compound: CC(=O)Nc1ccc(O)cc1 [acetaminophen]
- deaths [3, 16]: No deaths occurred
- hepatic necrosis [7]: can cause massive hepatic necrosis
- deaths [2, 16]: no deaths occurred
- cataracts [8]: can cause cataracts in humans
- % Deaths ([9]; acetaminophen 600 mg/kg i.p. alone (methionine sulfoxide 0), 17 animals): 94%

Compound: CC(=O)N[C@@H](CS)C(=O)O [acetylcysteine]
- prevention of hepatotoxicity [10]: effective in preventing hepatotoxicity

Compound: CCO [alcohol]
- potentiation of acetaminophen hepatotoxicity [7]: markedly potentiate the hepatotoxicity

Compound: NCCS [cysteamine]
- protection against the hepatotoxicity of acetaminophen [11]: varying degrees of protection

Compound: N[C@@H](CS)C(=O)O [cysteine]
- protection against the hepatotoxicity of acetaminophen [11]: varying degrees of protection

Compound: C[S+]([O-])CC[C@H](N)C(=O)O (stereo partly drawn) [methionine sulfoxide]
- deaths ([3]; methionine sulfoxide 150 mg/kg concurrently with 300 mg/kg acetaminophen and 600 mg/kg BHT): no deaths occurred
- coma produced by the combination of acetaminophen and BHA ([2]; methionine sulfoxide treated, survivors): manifested even in the survivors
- dosage of BHA up to which hamsters are protected against the enhanced acetaminophen toxicity ([2]; methionine sulfoxide with acetaminophen and BHA, value is BHA dosage (up to about)): about 200 mg/kg
- ED50 ([9]; Mesocricetus auratus, ip): ~65 mg/kg
- % Deaths ([9]; methionine sulfoxide 50 mg/kg i.p. with acetaminophen 600 mg/kg, 15 animals): 60%
- % Deaths ([9]; methionine sulfoxide 100 mg/kg i.p. with acetaminophen 600 mg/kg, 17 animals): 23.5%
- hamsters protected from the otherwise lethal dosage of acetaminophen ([9]; methionine sulfoxide 100 mg/kg): over 75%
- % Deaths ([9]; methionine sulfoxide 200 mg/kg i.p. with acetaminophen 600 mg/kg, 17 animals): 0%
- hamsters protected from the otherwise lethal dosage of acetaminophen ([9]; methionine sulfoxide 200 mg/kg): protected all of the hamsters
- % Deaths ([9]; methionine sulfoxide 400 mg/kg i.p. with acetaminophen 600 mg/kg, 8 animals): 0%
- hamsters protected from the otherwise lethal dosage of acetaminophen ([9]; methionine sulfoxide 400 mg/kg): protected all of the hamsters

Compound: CSCC[C@H](N)C(=O)O [methionine]
- protection against the hepatotoxicity of acetaminophen [11]: varying degrees of protection

Compound: CCCOC(=O)c1cc(O)c(O)c(O)c1 [propyl gallate]
- effect on acetaminophen hepatotoxicity [12]: reduce hepatotoxicity

Compound: [Se] [selenium]
- protection against the hepatotoxicity of acetaminophen [11]: varying degrees of protection

Compound: O=C1O[C@H]([C@@H](O)CO)C(O)=C1O [vitamin C, ascorbic acid]
- apparent half-life of drug (acetaminophen) ([13]; by rate of secretion in the urine): did not affect the apparent half-life
- excretion rate of acetaminophen sulfate [13]: rapid and pronounced decrease
- protection against the hepatotoxic effects of acetaminophen ([12]; Raghuram et al.): may provide such protection

Compound: Cc1c(C)c2c(c(C)c1O)CCC(C)(CCCC(C)CCCC(C)CCCC(C)C)O2 (stereo not drawn) [vitamin E, α-tocopherol]
- protection against the hepatotoxicity of acetaminophen [11]: varying degrees of protection
- protection against the hepatotoxic effects of acetaminophen [14]: provides such protection
- effect on acetaminophen hepatotoxicity [12]: reduce hepatotoxicity

Compound: dimethylmercaptol
- protection against the hepatotoxicity of acetaminophen [11]: varying degrees of protection
